The results in this text go back to article PMC11597207, “Synthesis and Anti-Inflammatory and Analgesic Potentials of Ethyl 2-(2,5-Dioxo-1-Phenylpyrrolidin-3-yl)-2-Methylpropanoate” (Pharmaceuticals, 2024).

Structures are written as SMILES.

The target of one assay is T1, 5-LOX (Homo sapiens, UniProt P09917).
T1 construct: purchased Cayman Chemical Batch No.: A3457
T1 sequence (P09917 1-674): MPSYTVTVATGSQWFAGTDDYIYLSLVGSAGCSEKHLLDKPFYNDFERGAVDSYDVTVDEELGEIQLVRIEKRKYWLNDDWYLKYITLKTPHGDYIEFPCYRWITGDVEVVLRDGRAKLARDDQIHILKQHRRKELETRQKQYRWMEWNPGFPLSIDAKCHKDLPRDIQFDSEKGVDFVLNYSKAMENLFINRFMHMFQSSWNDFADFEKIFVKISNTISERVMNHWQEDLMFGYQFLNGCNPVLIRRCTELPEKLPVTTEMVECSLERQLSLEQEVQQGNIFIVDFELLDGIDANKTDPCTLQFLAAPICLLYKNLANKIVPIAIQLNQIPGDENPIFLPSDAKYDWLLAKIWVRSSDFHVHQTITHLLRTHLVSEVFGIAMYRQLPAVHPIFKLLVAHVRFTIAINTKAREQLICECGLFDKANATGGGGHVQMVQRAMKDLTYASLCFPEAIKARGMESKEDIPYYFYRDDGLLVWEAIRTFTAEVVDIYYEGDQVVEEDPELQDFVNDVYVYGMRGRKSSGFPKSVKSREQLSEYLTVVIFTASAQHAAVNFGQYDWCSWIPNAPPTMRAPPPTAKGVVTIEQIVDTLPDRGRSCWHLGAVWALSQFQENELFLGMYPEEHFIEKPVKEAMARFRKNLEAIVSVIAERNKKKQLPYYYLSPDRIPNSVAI
The assay can be described thus: 5-LOX inhibitory assay. It counts as biochemical. The following applies: read-out: 5-LOX percent inhibition. On the procedure: The activity of MAK01 against the 5-LOX enzyme was investigated using a human recombinant form of 5-LOX [47]. To begin the 5-LOX activity assay, a 10,000 U/mL solution of 5-LOX was prepared in a phosphate buffer with a pH of 6.3. A range of concentrations of the test compounds in the same buffer were prepared for assay. As a substrate for 5-LOX, linoleic acid (80 mM) was diluted with ethyl alcohol and used in the assay. The experiment involved mixing the same amount of both the enzyme solution and the test sample, such as mixing 0.25 mL 5-LOX with 0.25 mL of the compound, both dissolved in buffer. The mixing was followed by incubation at 25 °C for 5 to 10 min. Subsequently, 0.10 mL of the linoleic acid solution was added and allowed to incubate for another 5 min. The absorbance was measured using a UV–visible spectrophotometer at a wavelength of 234 nm, and the percent inhibition was calculated based on the absorbance readings. The same procedure was repeated for different concentrations of the test samples. Zileuton, as a reference drug, was used in comparisons. Using the following formula, the percent inhibition for each sample was calculated: % Inhibition=Abs. of Control−Abs. of Sample/Abs. of Control×100

Assay [1] has as its system carrageenan-induced paw edema. The assay can be described thus: Carrageenan-induced paw edema model. It counts as in vivo. The following applies: mice, dose 10 mg/kg. On the procedure: The anti-inflammatory activity of MAK01 was evaluated through a carrageenan-induced paw edema model. The mice, with weights ranging from 25 to 30 g, were separated into five distinct groups, these being Vehicle Group 1, Aspirin Group 2, and different concentrations of MAK01 in Groups 3–5. Each of these groups comprised five mice. The negative control group in the experiment received a specific solution comprising normal saline, DMSO, and Tween-80. The mixture contained 94% normal saline, 5% DMSO, and 1% Tween-80, delivered at a concentration of 10 mL per kg. In contrast, the positive control group in the assay received the comparator aspirin at a precise dose of 10 mg/kg. The test samples were administered at doses of 10 mg/kg, 20 mg/kg, and 30 mg/kg, given intra-peritoneally. After 30 min, a 2% carrageenan suspension (0.2 mL) was administered to each mouse in every group via a subcutaneous injection in the hind paw. In the experiment, a plethysmometer was used to precisely measure inflammation and edema. These measurements were taken at multiple time points both prior to and following the carrageenan administration. Specifically, the readings were recorded at 1, 2, 3, 4, and 5 h intervals to monitor the progress of the inflammatory response and paw swelling. These obtained results were then compared against the outcomes from the negative control group. The gathered data from the experiment, relating to the impact of the newly synthesized compounds on paw edema, were carefully processed to derive the percentage of edema inhibition. Using the below equation, the percent inhibition was calculated. % Inhibition=Ce−Te/Ce×100
In the formula, ‘Ce’ refers to the control group paw edema volume, while ‘Te’ denotes test groups’ paw edema volume.
(In general: Carrageenan injected into the paw causes an acute inflammation.)

The test system of the next assay is mice. The assay can be described thus: Hot plate antinociceptive test. It counts as in vivo. The following applies: dose 5 mg/kg.

For the molecule `CC(c1cc2ccccc2s1)N(O)C(N)=O` (stereo not drawn) [Zileuton, zileuton, reference compound], at 5-LOX, the inhibition (usually the drop in the measured response relative to a control, in per cent) at 62.5 µg/mL came out at 74%; the inhibition at 125 µg/mL amounted to 78%; the inhibition at 250 µg/mL came to 81%; the inhibition at 500 µg/mL was determined as 85%. Also, the inhibition at 1000 µg/mL on 5-LOX worked out at 94%.

Regarding `CC(=O)Oc1ccccc1C(=O)O` [Aspirin, aspirin, reference compound], the “Paw Edema Inhibition in Percent” value is on record as 47.46 ± 0.80% in assay [1] (1 h); 54.42 ± 1.10% in assay [1] (2 h); 55.23 ± 0.73% in assay [1] (3 h); 56.22 ± 1.34% in assay [1] (4 h); 57.57 ± 1.23% in assay [1] (5 h).

As to `CN1CC[C@]23c4c5ccc(O)c4O[C@H]2[C@@H](O)C=C[C@H]3[C@H]1C5` [Morphine, morphine, reference compound], the “Latency Time (Seconds) on Hot Plate” value with mice (30 min) was found to be 13.83 ± 0.63 s; in the assay on mice (60 min), 13.52 ± 0.23 s; in the assay with mice (90 min) it was 13.29 ± 0.78 s; in the assay with mice (120 min), 12.92 ± 0.56 s; in the assay on mice (150 min), 12.59 ± 0.41 s.
